In paper PMC11864979, “First-in-class ultralong-target-residence-time p38α inhibitors as a mitosis-targeted therapy for colorectal cancer” (Nature Cancer, 2025):
Where two headings read alike, the source gives them in different places.

Columns and labels:
Test in all cases: selectivity profiling in a panel of 340 wild-type kinases (Reaction Biology Europe)
Type in all cases: binding
[1] = target: T1, 340 wild-type kinases (Homo sapiens, UniProt O43318)
T1 construct: purchased Reaction Biology Europe
T1 sequence (O43318 1-606): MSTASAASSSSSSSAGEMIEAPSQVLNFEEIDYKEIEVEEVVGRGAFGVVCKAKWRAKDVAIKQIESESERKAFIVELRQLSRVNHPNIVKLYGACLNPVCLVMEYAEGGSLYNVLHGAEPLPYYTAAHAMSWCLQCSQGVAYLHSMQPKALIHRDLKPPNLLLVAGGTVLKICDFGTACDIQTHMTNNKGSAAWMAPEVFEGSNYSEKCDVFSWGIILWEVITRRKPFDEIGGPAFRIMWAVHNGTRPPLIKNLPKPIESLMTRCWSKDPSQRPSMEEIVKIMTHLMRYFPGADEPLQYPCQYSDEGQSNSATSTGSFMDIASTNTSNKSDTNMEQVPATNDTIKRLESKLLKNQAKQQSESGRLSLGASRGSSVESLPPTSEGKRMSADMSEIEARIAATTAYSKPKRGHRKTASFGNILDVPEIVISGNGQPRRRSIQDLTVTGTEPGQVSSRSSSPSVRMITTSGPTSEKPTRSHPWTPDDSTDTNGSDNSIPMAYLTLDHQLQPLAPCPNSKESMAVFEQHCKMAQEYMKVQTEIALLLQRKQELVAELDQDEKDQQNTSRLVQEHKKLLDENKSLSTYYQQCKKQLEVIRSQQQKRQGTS

[2] = target: T2, 340 wild-type kinases (Homo sapiens, UniProt Q00534)
T2 construct: purchased Reaction Biology Europe
T2 sequence (Q00534 whole entry): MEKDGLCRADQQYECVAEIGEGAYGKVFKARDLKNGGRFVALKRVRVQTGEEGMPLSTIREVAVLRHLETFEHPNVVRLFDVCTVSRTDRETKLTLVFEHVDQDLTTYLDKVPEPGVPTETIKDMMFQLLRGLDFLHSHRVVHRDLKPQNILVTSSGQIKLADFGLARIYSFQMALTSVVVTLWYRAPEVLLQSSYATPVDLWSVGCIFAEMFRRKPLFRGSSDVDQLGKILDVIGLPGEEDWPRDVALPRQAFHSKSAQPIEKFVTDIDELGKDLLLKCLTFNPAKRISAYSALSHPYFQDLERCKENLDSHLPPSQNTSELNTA

[3] = target: T3, 340 wild-type kinases (Homo sapiens, UniProt Q15208)
T3 construct: purchased Reaction Biology Europe
T3 sequence (Q15208 whole entry): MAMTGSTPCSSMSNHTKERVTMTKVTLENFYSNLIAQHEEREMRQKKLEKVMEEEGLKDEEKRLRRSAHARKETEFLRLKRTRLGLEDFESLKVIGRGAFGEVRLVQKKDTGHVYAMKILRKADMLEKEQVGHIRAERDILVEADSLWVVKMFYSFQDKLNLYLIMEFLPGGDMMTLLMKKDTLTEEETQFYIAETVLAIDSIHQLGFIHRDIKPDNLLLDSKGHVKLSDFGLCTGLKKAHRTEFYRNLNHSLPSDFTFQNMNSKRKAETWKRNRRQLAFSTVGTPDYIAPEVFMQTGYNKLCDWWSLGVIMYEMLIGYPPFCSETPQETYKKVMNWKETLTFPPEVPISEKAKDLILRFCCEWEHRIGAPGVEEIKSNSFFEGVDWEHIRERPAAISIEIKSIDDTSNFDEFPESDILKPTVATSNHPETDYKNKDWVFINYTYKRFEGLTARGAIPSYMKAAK

[4] = target: T4, 340 wild-type kinases (Homo sapiens, UniProt Q15131)
T4 construct: purchased Reaction Biology Europe
T4 sequence (Q15131 whole entry): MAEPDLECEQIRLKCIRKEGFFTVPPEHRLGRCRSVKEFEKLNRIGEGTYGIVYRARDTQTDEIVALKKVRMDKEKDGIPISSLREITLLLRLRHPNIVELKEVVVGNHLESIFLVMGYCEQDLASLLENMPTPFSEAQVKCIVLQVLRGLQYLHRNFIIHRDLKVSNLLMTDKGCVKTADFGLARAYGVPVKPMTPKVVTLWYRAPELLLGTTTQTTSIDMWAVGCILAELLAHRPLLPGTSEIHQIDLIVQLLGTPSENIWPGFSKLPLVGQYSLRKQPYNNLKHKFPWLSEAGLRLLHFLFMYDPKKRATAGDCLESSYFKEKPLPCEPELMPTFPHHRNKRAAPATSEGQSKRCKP

[5] = target: T5, 340 wild-type kinases (Homo sapiens, UniProt P49760)
T5 construct: purchased Reaction Biology Europe
T5 sequence (P49760 whole entry): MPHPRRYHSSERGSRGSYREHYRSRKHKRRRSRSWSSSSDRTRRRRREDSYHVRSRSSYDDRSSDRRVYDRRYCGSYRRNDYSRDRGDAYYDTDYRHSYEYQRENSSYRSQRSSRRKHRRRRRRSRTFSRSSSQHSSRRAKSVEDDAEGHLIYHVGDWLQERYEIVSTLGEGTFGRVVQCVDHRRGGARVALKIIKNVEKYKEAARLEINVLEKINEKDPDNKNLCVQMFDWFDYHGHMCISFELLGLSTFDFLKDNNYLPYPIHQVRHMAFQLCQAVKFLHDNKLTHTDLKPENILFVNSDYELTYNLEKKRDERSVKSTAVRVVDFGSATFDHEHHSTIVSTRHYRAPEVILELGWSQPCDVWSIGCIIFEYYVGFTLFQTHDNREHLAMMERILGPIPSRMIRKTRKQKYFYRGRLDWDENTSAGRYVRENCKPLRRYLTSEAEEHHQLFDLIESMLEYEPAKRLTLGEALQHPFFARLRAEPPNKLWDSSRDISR

[6] = target: T6, 340 wild-type kinases (Homo sapiens, UniProt Q8TD19)
T6 construct: purchased Reaction Biology Europe
T6 sequence (Q8TD19 1-979): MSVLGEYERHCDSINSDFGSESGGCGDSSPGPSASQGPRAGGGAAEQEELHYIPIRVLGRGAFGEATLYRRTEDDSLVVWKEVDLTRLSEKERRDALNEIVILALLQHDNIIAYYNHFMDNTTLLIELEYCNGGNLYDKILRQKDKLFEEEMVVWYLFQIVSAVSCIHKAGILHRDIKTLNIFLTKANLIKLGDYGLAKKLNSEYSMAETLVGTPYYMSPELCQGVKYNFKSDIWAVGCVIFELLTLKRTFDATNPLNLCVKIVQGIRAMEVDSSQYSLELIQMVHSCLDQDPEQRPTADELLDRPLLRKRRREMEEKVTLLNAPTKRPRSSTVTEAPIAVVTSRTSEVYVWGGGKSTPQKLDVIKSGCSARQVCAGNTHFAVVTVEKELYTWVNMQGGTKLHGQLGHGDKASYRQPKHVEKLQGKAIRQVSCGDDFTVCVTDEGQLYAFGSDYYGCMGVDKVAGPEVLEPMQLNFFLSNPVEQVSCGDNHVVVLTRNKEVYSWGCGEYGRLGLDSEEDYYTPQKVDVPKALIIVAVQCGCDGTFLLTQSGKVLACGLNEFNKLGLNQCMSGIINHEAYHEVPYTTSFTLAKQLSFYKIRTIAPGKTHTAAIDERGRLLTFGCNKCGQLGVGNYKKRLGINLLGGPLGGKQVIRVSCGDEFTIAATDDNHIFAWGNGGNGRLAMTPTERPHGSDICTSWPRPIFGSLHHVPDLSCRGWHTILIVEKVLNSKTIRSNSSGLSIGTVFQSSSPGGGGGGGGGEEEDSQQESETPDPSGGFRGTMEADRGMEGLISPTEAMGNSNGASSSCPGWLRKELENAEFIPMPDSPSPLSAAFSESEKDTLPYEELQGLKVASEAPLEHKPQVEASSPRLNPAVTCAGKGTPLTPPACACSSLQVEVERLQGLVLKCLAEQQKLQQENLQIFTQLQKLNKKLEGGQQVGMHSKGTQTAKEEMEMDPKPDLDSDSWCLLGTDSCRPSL

[7] = target: T7, 340 wild-type kinases (Homo sapiens, UniProt Q9HCP0)
T7 construct: purchased Reaction Biology Europe
T7 sequence (Q9HCP0 whole entry): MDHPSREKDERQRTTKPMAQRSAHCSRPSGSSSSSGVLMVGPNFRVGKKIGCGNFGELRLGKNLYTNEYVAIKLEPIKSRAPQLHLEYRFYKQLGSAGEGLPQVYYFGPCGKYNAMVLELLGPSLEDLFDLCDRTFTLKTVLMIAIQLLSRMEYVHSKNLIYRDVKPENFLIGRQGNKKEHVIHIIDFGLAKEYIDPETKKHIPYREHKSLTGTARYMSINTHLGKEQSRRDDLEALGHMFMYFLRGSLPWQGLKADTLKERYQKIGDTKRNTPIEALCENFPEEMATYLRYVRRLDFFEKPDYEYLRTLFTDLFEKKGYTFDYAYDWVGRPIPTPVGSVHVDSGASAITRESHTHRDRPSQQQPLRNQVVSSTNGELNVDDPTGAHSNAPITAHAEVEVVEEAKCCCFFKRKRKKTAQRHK

[8] = target: T8, 340 wild-type kinases (Homo sapiens, UniProt Q96RR4)
T8 construct: purchased Reaction Biology Europe
T8 sequence (Q96RR4 whole entry): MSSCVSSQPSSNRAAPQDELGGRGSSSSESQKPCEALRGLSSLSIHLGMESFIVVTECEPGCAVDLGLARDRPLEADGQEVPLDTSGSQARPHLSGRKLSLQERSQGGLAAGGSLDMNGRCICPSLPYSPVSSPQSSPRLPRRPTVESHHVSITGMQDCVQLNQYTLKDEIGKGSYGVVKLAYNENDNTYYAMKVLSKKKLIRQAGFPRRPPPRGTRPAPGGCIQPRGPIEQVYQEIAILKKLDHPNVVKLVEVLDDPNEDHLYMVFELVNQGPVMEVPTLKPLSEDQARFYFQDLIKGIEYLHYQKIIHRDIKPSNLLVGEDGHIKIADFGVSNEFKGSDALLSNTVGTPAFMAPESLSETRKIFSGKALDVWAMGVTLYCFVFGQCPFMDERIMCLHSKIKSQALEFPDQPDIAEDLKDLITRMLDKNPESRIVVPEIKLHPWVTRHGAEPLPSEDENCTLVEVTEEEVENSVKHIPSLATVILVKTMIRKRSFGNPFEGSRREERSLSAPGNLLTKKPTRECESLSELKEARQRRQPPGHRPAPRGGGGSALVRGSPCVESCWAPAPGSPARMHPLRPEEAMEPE

Work on `CNC(=O)c1ccc2c(c1)C(=O)c1ccc(Nc3ccc(F)c(NC(=O)C4CC4)c3)cc1CC2` [Compound 2015] yielded a remaining activity at 0.2 µM ([1]; 0.2 µM 2015, read-out: MAP3K7/MAP3K7IP1 residual activity) of 96.8%, a remaining activity at 1 µM ([1]; 1 µM 2015, read-out: MAP3K7/MAP3K7IP1 residual activity) of 93.9% and a remaining activity at 1 µM ([1]; MAP3K7/MAP3K7IP1, 1 µM, read-out: residual activity) of 93.9%. For the same compound, the remaining activity at 0.2 µM ([2]; 0.2 µM 2015, read-out: CDK6/CycD1 residual activity) was 97.6%, the remaining activity at 0.2 µM ([2]; 0.2 µM 2015, read-out: CDK6/CycD2 residual activity) was 88.8% and the remaining activity at 0.2 µM ([2]; 0.2 µM 2015, read-out: CDK6/CycD3 residual activity) was 93.3%. It also gave a remaining activity at 1 µM ([2]; 1 µM 2015, read-out: CDK6/CycD1 residual activity) of 93.4%, a remaining activity at 1 µM ([2]; 1 µM 2015, read-out: CDK6/CycD2 residual activity) of 91.1% and a remaining activity at 1 µM ([2]; 1 µM 2015, read-out: CDK6/CycD3 residual activity) of 86.4%. The remaining activity at 0.2 µM ([2]; CDK6/CycD1, 0.2 µM, read-out: residual activity) was 97.6%, the remaining activity at 1 µM ([2]; CDK6/CycD1, 1 µM, read-out: residual activity) was 93.4% and the remaining activity at 0.2 µM ([2]; CDK6/CycD2, 0.2 µM, read-out: residual activity) was 88.8%. The remaining activity at 1 µM ([2]; CDK6/CycD2, 1 µM, read-out: residual activity) was 91.1%, the remaining activity at 0.2 µM ([2]; CDK6/CycD3, 0.2 µM, read-out: residual activity) was 93.3% and the remaining activity at 1 µM ([2]; CDK6/CycD3, 1 µM, read-out: residual activity) was 86.4%. The remaining activity at 0.2 µM ([3]; 0.2 µM 2015, read-out: NDR1 residual activity) was 91.9%, the remaining activity at 1 µM ([3]; 1 µM 2015, read-out: NDR1 residual activity) was 94% and the remaining activity at 0.2 µM ([3]; NDR1, 0.2 µM, read-out: residual activity) was 91.9%. For the same compound, the remaining activity at 1 µM ([3]; NDR1, 1 µM, read-out: residual activity) was 94%, the remaining activity at 0.2 µM ([4]; 0.2 µM 2015, read-out: CDK10/CycQ residual activity) was 108% and the remaining activity at 1 µM ([4]; 1 µM 2015, read-out: CDK10/CycQ residual activity) was 97.1%. For the same compound, the remaining activity at 0.2 µM ([4]; CDK10/CycQ, 0.2 µM, read-out: residual activity) was 108%, the remaining activity at 1 µM ([4]; CDK10/CycQ, 1 µM, read-out: residual activity) was 97.1% and the remaining activity at 0.2 µM ([5]; 0.2 µM 2015, read-out: CLK2 residual activity) was 110%. It also gave a remaining activity at 1 µM ([5]; 1 µM 2015, read-out: CLK2 residual activity) of 96.8%, a remaining activity at 0.2 µM ([5]; CLK2, 0.2 µM, read-out: residual activity) of 110% and a remaining activity at 1 µM ([5]; CLK2, 1 µM, read-out: residual activity) of 96.8%. The remaining activity at 0.2 µM ([6]; 0.2 µM 2015, read-out: NEK9 residual activity) was 96.5%, the remaining activity at 1 µM ([6]; 1 µM 2015, read-out: NEK9 residual activity) was 93% and the remaining activity at 0.2 µM ([6]; NEK9, 0.2 µM, read-out: residual activity) was 96.5%. For the same compound, the remaining activity at 1 µM ([6]; NEK9, 1 µM, read-out: residual activity) was 93%, the remaining activity at 0.2 µM ([7]; 0.2 µM 2015, read-out: CK1gamma1 residual activity) was 115% and the remaining activity at 1 µM ([7]; 1 µM 2015, read-out: CK1gamma1 residual activity) was 107%. It also gave a remaining activity at 0.2 µM ([7]; CK1gamma1, 0.2 µM, read-out: residual activity) of 115%, a remaining activity at 1 µM ([7]; CK1gamma1, 1 µM, read-out: residual activity) of 107% and a remaining activity at 0.2 µM ([8]; 0.2 µM 2015, read-out: CAMKK2 residual activity) of 96%. The remaining activity at 1 µM ([8]; 1 µM 2015, read-out: CAMKK2 residual activity) was 96.6%, the remaining activity at 0.2 µM ([8]; CAMKK2, 0.2 µM, read-out: residual activity) was 96% and the remaining activity at 1 µM ([8]; CAMKK2, 1 µM, read-out: residual activity) was 96.6%.
